Laboratory results published in patent US20060115815A1 (priority 2002, published 2006).
Read-outs that look alike come from different tables or passages of the source.

Columns and labels:
[1] = tested on: WT; experiment: microbe, parasite or virus in culture; format: cell-based, HIV-1
[2] = target: recombinant HIV-1 protease (Human immunodeficiency virus type 1 group M subtype B, UniProt P04585); experiment: biochemical; format: biochemical; conditions: for Ki: read-out: Enzymatic assay Ki
[3] = target: T1, 84V90M (Human immunodeficiency virus type 1 group M subtype B, UniProt P04585, I572V/L578M); experiment: biochemical; set-up: species or system HIV-1
[4] = tested on: 48V54V82A; experiment: microbe, parasite or virus in culture; format: cell-based, HIV-1
[5] = target: T1, 84V90M; experiment: cell-based; set-up: species or system HIV-1
[6] = tested on: 46I50V; experiment: microbe, parasite or virus in culture; format: cell-based, HIV-1
[7] = tested on: 30N82I88D; experiment: microbe, parasite or virus in culture; format: cell-based, HIV-1
[8] = tested on: 46I50V; set-up: species or system HIV-1; conditions: MT-4, 46I50V; read-out: Cell-based assay (MT-4) EC50/nM 46I50V
[9] = target: T1, 84V90M; experiment: Enzymatic assay, IC50 against 84V90M mutant protease; format: biochemical, HIV-1
[10] = tested on: 48V54V82A; set-up: species or system HIV-1; conditions: MT-4, 48V54V82A; read-out: Cell-based assay (MT-4) EC50/nM 48V54V82A
[11] = tested on: 30N82I88D; set-up: species or system HIV-1; conditions: MT-4, 30N82I88D; read-out: Cell-based assay (MT-4) EC50/nM 30N82I88D
[12] = tested on: WT HIV-1; experiment: microbe, parasite or virus in culture; format: cell-based
[13] = tested on: mutant HIV-1 with I84V/L90M mutations in the protease gene; format: cell-based; conditions: MT-4, 84V90M; read-out: Cell-based assay (MT-4) EC50/nM 84V90M
[14] = tested on: recombinant HIV-1 strains with resistance mutations in the protease gene; experiment: Cross-resistance profile assay, whole panel of mutant viruses; format: cell-based; conditions: {}
[15] = beagle, dog, in vivo, po
[16] = tested on: MT-2 cells
[17] = read-out: Cell-based assay (MT-4) EC50 WT
[18] = 84V90M enzyme, read-out: Enzymatic assay 84V90M IC50
[19] = MT-4, 48V54V82A, read-out: Cell-based assay (MT-4) EC50 48V54V82A
[20] = MT-4, 84V90M, read-out: Cell-based assay (MT-4) EC50 84V90M
[21] = MT-4, 46I50V, read-out: Cell-based assay (MT-4) EC50 46I50V
[22] = MT-4, 30N82I88D, read-out: Cell-based assay (MT-4) EC50 30N82I88D
[23] = Human immunodeficiency virus 1, read-out: Cell-based assay (MT-4) EC50 WT
[24] = Human immunodeficiency virus 1, read-out: Cell-based assay (MT-4) EC50 30N82I88D
[25] = Human immunodeficiency virus 1, read-out: Cell-based assay (MT-4) EC50 48V54V82A
[26] = Human immunodeficiency virus 1, read-out: Cell-based assay (MT-4) EC50 46I50V
[27] = read-out: Enzymatic assay WT IC50/nM
[28] = MT-4, WT, read-out: Cell-based assay (MT-4) EC50/nM WT

## CCOC(=O)C(C)OP(=O)(CCCNC(=O)c1cccc(CN2C(=O)N(Cc3ccc4[nH]nc(N)c4c3)[C@H](Cc3ccccc3)[C@H](O)[C@@H](O)[C@H]2Cc2ccccc2)c1)Oc1ccccc1 (stereo partly drawn)
[1]; [17]
  EC50: 603 nM
[2]
  Ki: 0.112 nM
[2]; read-out: Enzymatic assay WT IC50
  IC50: 1.4 nM
[3]; [18]
  IC50: 6.4 nM
[4]; [19]
  EC50: 208 nM
[5]; [20]
  EC50: 1280 nM
[6]; [21]
  EC50: 209 nM
[7]; [22]
  EC50: 678 nM

## Nc1cccc(CN2C(=O)N(Cc3cccc(C(=O)O)c3)C(Cc3ccccc3)C(O)C(O)C2Cc2ccccc2)c1 (stereo not drawn)
[1]; [23]
  EC50: 2340 nM
[3]
  IC50: 299 nM
[5]
  EC50: > 6000 nM
[7]; [24]
  EC50: 3360 nM

## CCOP(=O)(CCCNC(=O)c1cccc(CN2C(=O)N(Cc3cccc(N)c3)C(Cc3ccccc3)C(O)C(O)C2Cc2ccccc2)c1)OCC (stereo not drawn)
[1]; [23]
  EC50: 176 nM
[3]
  IC50: 29 nM
[4]; [25]
  EC50: 233 nM
[5]
  EC50: 824 nM
[6]; [26]
  EC50: 195 nM
[7]; [24]
  EC50: 171 nM

## Nc1n[nH]c2ccc(CN3C(=O)N(Cc4cccc(C(=O)O)c4)[C@H](Cc4ccccc4)[C@H](O)[C@@H](O)[C@H]3Cc3ccccc3)cc12
[3]; [18]
  IC50: 27 nM
[5]; [20]
  EC50: > 6000 nM
[7]; [22]
  EC50: > 6000 nM

## CCOP(=O)(CCCNC(=O)c1cccc(CN2C(=O)N(Cc3ccc4[nH]nc(N)c4c3)[C@H](Cc3ccccc3)[C@H](O)[C@@H](O)[C@H]2Cc2ccccc2)c1)OCC
[1]; [17]
  EC50: 188 nM
[4]; [19]
  EC50: 240 nM
[5]; [20]
  EC50: 476 nM
[6]; [21]
  EC50: 319 nM
[7]; [22]
  EC50: 666 nM

## O=C1N(Cc2ccccc2)[C@H](Cc2ccccc2)[C@H](O)[C@@H](O)[C@@H](Cc2ccccc2)N1Cc1ccc2[nH]nc(O)c2c1
[8]
  EC50: 937 nM
[9]
  IC50: 85 nM
[2]
  Ki: 0.42 nM
[2]; [27]
  IC50: 6.6 nM
[10]
  EC50: 774 nM
[11]
  EC50: 869 nM
[12]; [28]
  EC50: 1230 nM
[13]
  EC50: > 600 nM

## N#Cc1cc(CN2C(=O)N(Cc3cccc(OCc4ccccc4)c3)[C@H](Cc3ccccc3)[C@H](O)[C@@H](O)[C@H]2Cc2ccccc2)ccc1F
[9]
  IC50: 114 nM
[2]
  Ki: 1.43 nM
[2]; [27]
  IC50: 302 nM
[13]
  EC50: > 600 nM

## COc1ccc(CN2C(=O)N(Cc3ccc(O)cc3)[C@H](Cc3ccccc3)[C@H](O)[C@@H](O)[C@H]2Cc2ccccc2)cc1C#N
[9]
  IC50: 348 nM
[2]
  Ki: > 5 nM
[2]; [27]
  IC50: 130 nM
[12]; [28]
  EC50: 2010 nM
[13]
  EC50: 3120 nM

## O=C1N(Cc2ccccc2)[C@H](Cc2ccccc2)[C@H](O)[C@@H](O)[C@@H](Cc2ccc(OCP(=O)(OCc3ccccc3)OCc3ccccc3)cc2)N1Cc1ccccc1
[10]
  EC50: > 6000 nM
[11]
  EC50: 3140 nM
[12]; [28]
  EC50: 1770 nM
[13]
  EC50: > 6000 nM

## Nc1n[nH]c2ccc(CN3C(=O)N(Cc4cccc(OCP(=O)(OCc5ccccc5)OCc5ccccc5)c4)C(Cc4ccccc4)C(O)C(O)C3Cc3ccccc3)cc12 (stereo not drawn)
[1]; [23]
  EC50: 898 nM
[4]; [25]
  EC50: 2600 nM
[5]
  EC50: > 6000 nM
[6]; [26]
  EC50: 3120 nM
[7]; [24]
  EC50: 705 nM

## CCOP(=O)(COc1cccc(CN2C(=O)N(Cc3ccc4[nH]nc(N)c4c3)C(Cc3ccccc3)C(O)C(O)C2Cc2ccccc2)c1)OCC (stereo not drawn)
[1]; [23]
  EC50: 665 nM
[4]; [25]
  EC50: 513 nM
[5]
  EC50: 3010 nM
[6]; [26]
  EC50: 857 nM
[7]; [24]
  EC50: 93 nM

## CC(C)CN(C[C@@H](O)[C@H](Cc1ccccc1)NC(=O)O[C@H]1CCOC1)S(=O)(=O)c1ccc(N)cc1 [Amprenavir]
[14]
  Total No. of Resistant Viruses: 4
[15]
  AUC(2-24 hr) in PBMCs: 102,000 nM · hr
  t1/2: 1.7 h
  t1/2 (hr) in PBMCs: 1.7 h
[12]; Human immunodeficiency virus 1, read-out: EC50 [nM] WT HIV-1
  EC50: 20 nM

## CCOP(=O)(COc1ccc(C[C@H](NC(=O)O[C@H]2CO[C@H]3OCC[C@H]32)[C@H](O)CN(CC(C)C)S(=O)(=O)c2ccc(OC)cc2)cc1)OCC [Compound 13]
[16]
  CC50: 50000 nM
